# In patent publication EP3720857B1, “2-OXO-5H-CHROMENO[4,3-B]PYRIDINES FOR USE IN THE TREATMENT OF HEPATITIS B” (Galapagos NV, priority 2017, dated 2019):
# Experiments:
# [1] = tested on: hepatitis virus B (HBV) infection; test: HepG2 NTCP assay (HBcAg staining as marker of HBV infection); format: cell-based; conditions: HepG2-NTCP cells infected with HBV, HBV core antigen (HBcAg) as marker of infection
# Procedure, shortened: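 HepG2-NTCP cells were infected with HBV (4% PEG, 1% DMSO) in the presence of compound overnight, then re-dosed and incubated 5 days at 37 °C. HBcAg immunofluorescence was imaged, with DAPI nuclei count taken as toxicity. Ten-point 1/3 dilutions gave % inhibition against 0.2% DMSO vehicle and 100 nM Myrcludex B, with dose-response curves fitted.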
# [2] = tested on: hepatitis virus B (HBV) infection; test: iCell hepatocytes assay, delayed assay (compounds added three days after HBV infection); format: cell-based; conditions: for EC50: Hepatitis B virus, Hepatocyte, HBs ELISA
# Protocol: The principle of the iCell hepatocyte 2.0 96 well assay is to evaluate the inhibitory effect of a test compound on hepatitis virus B (HBV) infection. In this assays the HBV core antigen (HBcAg) and/or extracellular antigen (HBeAg) and/or surface antigen (HBsAg) are used as a marker for HBV infection. Nuclei count may be used as an indication for compound toxicity.
# In the standard assay set-up HBV infection and compound addition are performed on the same day, in the delayed assay the compounds are added three days after HBV infection. iCell hepatocytes 2.0 are human hepatocytes derived from induced pluripotent stem cells (iPSc) purchased from Cellular Dynamics international (CDI, R1027).
# At day 0, iCell hepatocytes 2.0 (CDI, R1027) are thawed and seeded in collagen I coated 96well plates at 112 000c/well (100µL) in plating medium (RPMI supplemented with B27 supplement, 20 ng/mL recombinant human oncostatin M (OSM), 25µg/mL gentamicin, 0.1µM Dexamethasone and iCell medium supplement provided by CDI). Plates are incubated at 37°C, 5% CO2 and daily refreshed with plating medium for the following four days.
# On day 5 and 6, plates are refreshed with 100µL maintenance medium (RPMI supplemented with B27 supplement, 25µg/mL gentamicin, 0.1µM Dexamethasone, and iCell medium supplement provided by CDI) and incubated at 37°C, 5% CO2 until the following day.
# On day 7 (day of infection), the maintenance medium is removed from the assay plates and cells are infected with 50 µL of HBV mix (HBV virus, 4% PEG, 0% or 2% DMSO in maintenance medium). The assay plates were incubated overnight at 37°C, 5% CO2.
# At day 1 post infection (day8), 50µL of HBV mix is removed from the assay plates and refreshed with 100 µL of maintenance medium. The assay plates are incubated at 37°C, 5% CO2 for three days.
# At day 4 post infection (day 11) and day 7 post infection (day14), the supernatant is removed and 100 µL of compound series diluted 1/500 in maintenance medium is added to the assay plates (8 point serial dilution using 1/3 dilution steps in 100% DMSO or 8 point serial dilution using ¼ dilution steps, normalized for 0.2% DMSO. The assay plates were incubated at 37°C, 5% CO2 for three days.
# At day 10 post infection (day 17), 100µL of supernatant is harvested and frozen to -20°C. The cells are fixed with 50 µL of 3.7% formaldehyde and incubated for 30 min at room temperature. After fixation, cells are washed four times with phosphate buffer saline (PBS) with the plate washer (Select 405, microplate washer, Biotek) and subjected to HBc staining. harvested supernatant is used for HBe and/or HBs ELISA.
# The assay plates are blocked with blocking buffer (2% FBS, 3% BSA, 0.2% TritonX100 in PBS) for 1 h at room temperature.
# After blocking, the assay plates are tapped manually and incubated with 50 µL diluted primary antibody (1/700 Rabbit-anti-HBc Ag, Dako, B0586 or 1/350 Rabbit-anti-HBc Ag, Invitrogen, PA516368) in blocking buffer and incubated for 90 min at room temperature.
# After 4 washes of PBST (1XPBS + 0.05% Tween) with the plate washer, the assay plates are incubated with 100 µL of secondary antibody (Donkey-anti-rabbit Alexa 488, Lifetechnologies, A21206) 1/500 diluted in blocking buffer and incubated for 60 min at room temperature in the dark, then washed 4 times with PBST on the plate washer and incubated with 100µL of DAPI (Sigma D9542, stock 5mg/mL) 1/10000 diluted in PBS for 15-30 min at room temperature in the dark.
# Finally, the assay plates are read out on a InCell Analyzer 2200 (GE Healthcare). […]
# After blocking, 30 µL of sample and HBe Ag standard (recombinant hepatitis B virus E antigen protein, 4mg/mL, Abcam, ab91273) are added to the plate. The HBe Ag standard is 1/3 diluted in blocking buffer starting from 1.25µg/mL. A vehicle control is also included. The plate is incubated for 30 min at room temperature.
# After sample incubation, the plates are washed 4 times with PBST on a platewasher followed by 2 washed of PBS. […]
SMILES,IC50 [1] [nM],Delayed assay HBs ELISA % inhibition [2],EC50 [2] [nM]
"COc1cc2c(cc1OC)-c1c(cc(C(=O)O)c(=O)n1C1CC1)C(C(C)C)O2 (stereo not drawn) [Compound 3, 1-cyclopropyl-5-isopropyl-8,9-dimethoxy-2-oxo-5H-chromeno[4,3-b]pyridine-3-carboxylic acid]",1 to 20,+++ (75-100%),> 50
"COCCCOc1cc2c(cc1Cl)-c1c(cc(C(=O)O)c(=O)n1C1CCC1)C(C(C)C)O2 (stereo not drawn) [Compound 17, 9-chloro-1-cyclobutyl-5-isopropyl-8-(3-methoxypropoxy) -2-oxo-5H-chromeno[4,3-b]pyridine-3-carboxylic acid]",0.001 to 1,+++ (75-100%),0.001 to 20
"COCCCOc1cc2c(cc1Cl)-c1c(cc(C(=O)O)c(=O)n1C1CC1)[C@@H](C1(C)COC1)O2 [Compound 47, (5S)-9-chloro-1-cyclopropyl-8-(3-methoxypropoxy)-5-(3-methyloxetan-3-yl)-2-oxo-5H-chromeno[4,3-b]pyridine-3-carboxylic acid]",1 to 20,++ (50-75%),22 to 50

# More lines, main results first:
IC50 [1] [nM],SMILES,Delayed assay HBs ELISA % inhibition [2],EC50 [2] [nM]
0.001 to 1,"COCCCOc1cc2c(cc1Cl)-c1c(cc(C(=O)O)c(=O)n1C1CC1)C(C1(C)COC1)O2 (stereo not drawn) [Compound 2, 9-chloro-1-cyclopropyl-8-(3-methoxypropoxy)-5-(3-methyloxetan-3-yl)-2-oxo-5H-chromeno[4,3-b]pyridine-3-carboxylic acid]",++ (50-75%),0.001 to 20
0.001 to 1,"COCCCOc1cc2c(cc1Cl)-c1c(cc(C(=O)O)c(=O)n1C1CC1)C(C(C)C)O2 (stereo not drawn) [Compound 4, 9-chloro-1-cyclopropyl-5-isopropyl-8-(3-methoxypropoxy) -2-oxo-5H-chromeno[4,3-b]pyridine-3-carboxylic acid]",++ (50-75%),0.001 to 20
